Experiment: Dissolution time: time required fully to dissolve 1 gram of powder into 100 ml of water
Format: physicochemical
Conditions: 1 gram into 100 ml of water at 20° C.; only with vigorous stirring
Experimental: The dissolution rate of the resulting powder is defined by the dissolution time, viz. the time required fully to dissolve 1 gram thereof into 100 ml of water at 20° C. The dissolution time of the calcium salts compositions of the invention is not more than 60 seconds and preferably not more than 10 seconds. The dissolution time of the powder obtained according to Example 1 is found to be 3.036 sec, while the dissolution time of the untreated calcium gluconate granules is 1.3 minutes, and this only when vigorous stirring is carried out to hasten as much as possible the dissolution. Therefore the powder of Example 1 is an instantly soluble powder, as this expression is to be construed in this, specification.

calcium gluconate
dissolution time: 1.3 min

From US20020065317A1, “Calcium salt compositions having improved solubility and method for preparing them” (priority 1998, published 2002)
